Several values for one entry are separate records, joined by “and”; a condition that tells them apart may be missing. Equal values may be shown once.
Legend:
[1] = system: human recombinant flavin-containing monooxygenase 3 (FMO 3); assay: Two-step luminescent FMO assay with luciferin derivative; assay type: biochemical; settings: Table 32; CHES pH 9.5, NADPH regeneration, 4 hours room temperature; duplicates
[2] = system: luciferase; assay: No-enzyme control: activity of luciferase towards the luciferin derivative (background luminescence); settings: Table 32; microsomes from wild type baculovirus infected insect cells instead of FMO; CHES pH 9.5, 4 hours; duplicates
[3] = system: human recombinant flavin-containing monooxygenase 1 (FMO 1); assay: Two-step luminescent FMO assay with luciferin derivative; assay type: biochemical; settings: Table 32; CHES pH 9.5, NADPH regeneration, 4 hours room temperature; duplicates
[4] = molecular target: T1, CYP2D6 (Homo sapiens, UniProt P10635); assay: Screening inhibitors of CYP2D6 with luciferin-6-methylether ethylene glycol ester (IC50); assay type: biochemical; settings: substrate luciferin-6-methylether ethylene glycol ester
T1 construct: purchased Discovery Labware (BD/Gentest); host or cells: insect cell expression system (membrane fractions)

[5] = molecular target: T2, human recombinant monoamine oxidase A (MAO A) (Homo sapiens, UniProt P21397); parameters: purchased Sigma Chemical Company M-7316; host or cells: baculovirus infected insect cells (microsomes); settings: read-out: published values MAO A; cited from earlier work
T2 sequence (P21397 1-527): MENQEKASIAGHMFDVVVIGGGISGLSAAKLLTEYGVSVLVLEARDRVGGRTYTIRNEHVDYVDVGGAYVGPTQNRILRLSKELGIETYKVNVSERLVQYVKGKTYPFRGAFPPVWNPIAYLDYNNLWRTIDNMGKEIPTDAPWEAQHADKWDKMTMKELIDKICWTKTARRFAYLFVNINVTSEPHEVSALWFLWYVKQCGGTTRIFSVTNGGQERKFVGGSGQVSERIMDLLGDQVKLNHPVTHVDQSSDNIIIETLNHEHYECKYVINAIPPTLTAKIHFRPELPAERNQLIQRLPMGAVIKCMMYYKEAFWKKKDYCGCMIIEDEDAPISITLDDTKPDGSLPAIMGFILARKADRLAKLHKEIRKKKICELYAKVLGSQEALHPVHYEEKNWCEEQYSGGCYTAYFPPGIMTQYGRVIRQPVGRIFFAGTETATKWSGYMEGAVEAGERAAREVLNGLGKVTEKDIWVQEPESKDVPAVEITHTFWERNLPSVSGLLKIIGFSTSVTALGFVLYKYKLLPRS

[6] = molecular target: T3, human recombinant monoamine oxidase B (MAO B) (Homo sapiens, UniProt P27338); settings: published values; cited from earlier work
T3 construct: purchased Sigma Chemical Company M-7441; host or cells: baculovirus infected insect cells (microsomes)
T3 sequence (P27338 1-520): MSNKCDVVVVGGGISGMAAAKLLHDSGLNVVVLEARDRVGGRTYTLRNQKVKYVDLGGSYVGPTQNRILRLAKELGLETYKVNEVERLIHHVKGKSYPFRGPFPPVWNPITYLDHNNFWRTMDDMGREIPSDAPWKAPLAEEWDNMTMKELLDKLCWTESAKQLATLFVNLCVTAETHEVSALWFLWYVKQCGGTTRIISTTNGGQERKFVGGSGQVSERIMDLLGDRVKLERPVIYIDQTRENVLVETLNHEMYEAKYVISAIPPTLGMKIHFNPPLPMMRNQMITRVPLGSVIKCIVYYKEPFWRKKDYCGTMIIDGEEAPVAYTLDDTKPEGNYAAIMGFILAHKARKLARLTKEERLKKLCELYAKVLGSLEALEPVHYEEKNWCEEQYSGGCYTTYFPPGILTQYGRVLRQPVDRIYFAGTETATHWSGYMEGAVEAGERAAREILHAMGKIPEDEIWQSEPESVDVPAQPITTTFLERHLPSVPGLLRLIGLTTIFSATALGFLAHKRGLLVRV

T1 sequence (P10635 whole entry): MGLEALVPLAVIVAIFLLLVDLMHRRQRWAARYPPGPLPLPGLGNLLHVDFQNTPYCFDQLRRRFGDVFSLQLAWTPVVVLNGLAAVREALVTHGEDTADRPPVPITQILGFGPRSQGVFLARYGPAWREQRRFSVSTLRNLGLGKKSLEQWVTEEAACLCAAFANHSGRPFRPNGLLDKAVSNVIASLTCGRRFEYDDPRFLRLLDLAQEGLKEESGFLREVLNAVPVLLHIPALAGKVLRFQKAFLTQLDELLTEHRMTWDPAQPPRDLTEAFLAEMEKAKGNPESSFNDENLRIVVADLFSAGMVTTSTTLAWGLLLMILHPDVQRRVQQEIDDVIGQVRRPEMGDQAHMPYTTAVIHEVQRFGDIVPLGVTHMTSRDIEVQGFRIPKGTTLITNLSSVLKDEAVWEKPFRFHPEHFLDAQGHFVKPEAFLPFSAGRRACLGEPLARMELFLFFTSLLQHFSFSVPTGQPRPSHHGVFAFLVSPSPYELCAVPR

CCSCCOc1ccc2nc(C3=N[C@@H](C(=O)O)CS3)sc2c1 [FMO-2, 6-(2-ethylthioethoxy)-luciferin]
RLUs FMO 3 [1]: 12.194 RLUs and 10.425 RLUs
RLUs control [2]: 8.7102 RLUs and 8.5489 RLUs
RLUs FMO 1 [3]: 11.778 RLUs and 12.006 RLUs

N=C(N)N1CCc2ccccc2C1 [debrisoquine]
IC50 [4]: 77 µM

NCCc1ccccc1 [phenethylamine]
IC50 [5]: 78 to 280 µM
IC50 [6]: 2 to 150 µM
